In one assay the test system is COLO-679 (Melanoma). Kind of assay: Bliss excess, mean over the matrix (fraction); higher = more synergy. The essentials: (§1)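 After 24 hours at 37°C and 5% CO2 in 1536-well plates, cells in DMEM/F12 or RPMI plus 10% FBS received two-drug dose matrices for 72 hours. Viability came from CellTiter-Glo 2.0 luminescence and was scaled as inhibition, anchored at 0 by vehicle wells and at 1 by blank wells. Combination Emax is taken as the second-highest inhibition in the matrix, and Bliss excess as the observed combination effect less EA + EB − EA·EB, with EA and EB the single-agent effects.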

Assay [1] relates to Ca-Ski (Cervical Carcinoma). Described as above. The essentials:
as §1

Assay [2] deals with ALL-SIL (T-Lymphoblastic Leukemia). Kind of assay: combination Emax (second highest fraction inhibited in the dose matrix, 72 h); higher = more inhibition; extreme values may be limits of the assay. The essentials: as §1
The subject of assay [3] is CADO-ES1 (Ewing's Sarcoma). Described as above. The essentials: as §1
In assay [4] the test system is ML-2 (Acute Myeloid Leukemia). The assay is described as above. The essentials:
as §1

The subject of assay [5] is SW872 (Other Solid Carcinomas). Described as above. The essentials:
as §1

The next assay deals with SK-N-AS (Neuroblastoma). The description is as above. The essentials: as §1
The subject of assay [6] is KOPN-8 (B-Lymphoblastic Leukemia). The assay is described as above. The essentials:
as §1

The subject of assay [7] is A4-Fuk (B-Lymphoblastic Leukemia). Described as above. The essentials:
as §1

Assay [8] concerns MV-4-11 (Acute Myeloid Leukemia). Described as above. The essentials:
as §1

The subject of assay [9] is NCI-H2122 (Lung Adenocarcinoma). Described as above. The essentials: as §1
For assay [10], the system named is NCI-H1092 (Small Cell Lung Carcinoma). The description is as above. The essentials:
as §1

In assay [11] the test system is ME-180 (Cervical Carcinoma). The description is as above. The essentials:
as §1

Assay [12] concerns HCC2998 (Colorectal Carcinoma). The assay is described as above. The essentials:
as §1

In assay [13] the test system is OACM5-1 (Esophageal Adenocarcinoma). The description is as above. The essentials: as §1
In assay [14] the test system is EJM (Plasma Cell Myeloma). Described as above. The essentials:
as §1

The test system of assay [15] is NCI-H650 (Lung Adenocarcinoma). Described as above. The essentials:
as §1

Assay [16] concerns Ca-Ski (Cervical Carcinoma). The description is as above. The essentials:
as §1

In assay [17] the test system is DU-145 (Prostate Carcinoma). Described as above. The essentials:
as §1

The subject of assay [18] is NCI-H522 (Lung Adenocarcinoma). The description is as above. The essentials: as §1
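Wherever Bliss excess, mean over the matrix is given: after 72 h of two-drug dosing.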

As for `C=CCn1c(=O)c2cnc(Nc3ccc(N4CCN(C)CC4)cc3)nc2n1-c1cccc(C(C)(C)O)n1` [AZD1775] + O=C(c1cc(Cc2n[nH]c(=O)c3ccccc23)ccc1F)N1CCN(C(=O)C2CC2)CC1 [Olaparib] (first compound max 1 µM, partner max 10 µM), the Bliss excess in the assay with COLO-679 (Melanoma) was -0.0076; in [1], -0.0474. Moreover, the “combination Emax” value in assay [2] came to 0.899; in assay [3], 0.636; in assay [4], 1; in assay [5], 0.336; in the assay with SK-N-AS (Neuroblastoma), 0.78; in assay [6], 0.904. In addition, the “combination Emax” value in assay [7] was 0.875; in assay [8], 0.978; in assay [9], 0.834; in [10], 0.382; in [11], 0.457; in [12], 0.448. The “combination Emax” value in assay [13] turned out to be 0.353; in assay [14], 0.891; in [15], 0.316; in [16], 0.797; in assay [17], 0.255; in assay [18], 0.363.
For `CCN(CCO)CCCOc1ccc2c(Nc3cc(CC(=O)Nc4cccc(F)c4)[nH]n3)ncnc2c1` [AZD2811] + C=CCn1c(=O)c2cnc(Nc3ccc(N4CCN(C)CC4)cc3)nc2n1-c1cccc(C(C)(C)O)n1 [AZD1775] (first compound max 1 µM, partner max 1 µM), the Bliss excess is -0.0325 in the assay with COLO-679 (Melanoma) and 0.0123 in assay [1]. Further, the “combination Emax” value amounted to 0.966 in [2]; 0.454 in assay [3]; 1 in assay [4]; 0.289 in assay [5]; 0.728 in the assay on SK-N-AS (Neuroblastoma); 0.882 in [6]. The “combination Emax” value in assay [7] amounted to 0.852; in assay [8], 0.936; in assay [9] it was 0.897; in assay [10] it was 0.259; in assay [11], 0.396; in assay [12] it was 0.599. Further, the “combination Emax” value in assay [13] was 0.339; in assay [14], 0.875; in assay [15], 0.301; in assay [16], 0.697; in assay [17] it was 0.251; in assay [18], 0.218.
Consider `CCN(CCO)CCCOc1ccc2c(Nc3cc(CC(=O)Nc4cccc(F)c4)[nH]n3)ncnc2c1` [AZD2811] + C[C@@H]1COCCN1C2=NC(=NC(=C2)C3(CC3)[S@](=N)(=O)C)C4=C5C=CNC5=NC=C4 [AZD6738] (first compound max 1 µM, 7x7, partner max 10 µM), for which the values for the Bliss excess (in the assay with COLO-679 (Melanoma); in assay [1]) were -0.103 and -0.0273, respectively. The “combination Emax” value in assay [2] turned out to be 0.981; in assay [3] it was 0.843; in assay [4] it was 0.985; in assay [5] it was 0.571; in the assay with SK-N-AS (Neuroblastoma), 0.784; in assay [6], 0.855. Moreover, the “combination Emax” value amounted to 0.747 in assay [7]; 0.998 in assay [8]; 0.902 in [9]; 0.236 in assay [10]; 0.43 in assay [11]; 0.777 in assay [12]. The “combination Emax” value turned out to be 0.44 in assay [13]; 0.858 in assay [14]; 0.117 in assay [15]; 0.607 in [16]; 0.596 in assay [17]; 0.142 in assay [18].
As to `CCN(CCO)CCCOc1ccc2c(Nc3cc(CC(=O)Nc4cccc(F)c4)[nH]n3)ncnc2c1` [AZD2811] + O=C(c1cc(Cc2n[nH]c(=O)c3ccccc23)ccc1F)N1CCN(C(=O)C2CC2)CC1 [Olaparib] (first compound max 1 µM, 7x7, partner max 10 µM), the Bliss excess in the assay with COLO-679 (Melanoma) was -0.0569; in [1] it was 0.0242. Further, the “combination Emax” value came to 0.953 in [2]; 0.531 in assay [3]; 0.835 in assay [4]; 0.172 in assay [5]; 0.249 in the assay with SK-N-AS (Neuroblastoma); 0.709 in assay [6]. For the same molecule, the “combination Emax” value in assay [7] came to 0.437; in assay [8], 0.961; in [9], 0.437; in assay [10] it was 0.212; in [11] it was 0.252; in assay [12], 0.247. For the same molecule, the “combination Emax” value in assay [13] is 0.247; in assay [14], 0.167; in assay [15], 0.164; in assay [16], 0.289; in assay [17], 0.199; in assay [18], 0.221.
In the case of `CS(=O)(=O)CCNCc1ccc(-c2ccc3ncnc(Nc4ccc(OCc5cccc(F)c5)c(Cl)c4)c3c2)o1` [Lapatinib] + NC1(c2ccc(-c3nc4ccn5c(=O)[nH]nc5c4cc3-c3ccccc3)cc2)CCC1 [MK-2206] (first compound max 10 µM, 7x7, partner max 10 µM), the Bliss excess was -0.031 in the assay on COLO-679 (Melanoma) and 0.0103 in assay [1]. The “combination Emax” value in assay [4] turned out to be 0.785; in [5], 0.247; with SK-N-AS (Neuroblastoma), 0.16; in [6], 0.936; in assay [7] it was 0.971; in assay [8] it was 0.961. In addition, the “combination Emax” value turned out to be 0.791 in [10]; 0.758 in assay [11]; 0.31 in assay [15]; 0.758 in [16]; 0.297 in [17]; 0.322 in [18].
Regarding `CCc1c2c(nc3ccc(O)cc13)-c1cc3c(c(=O)n1C2)COC(=O)[C@]3(O)CC` [SN-38] + O=C(c1cc(Cc2n[nH]c(=O)c3ccccc23)ccc1F)N1CCN(C(=O)C2CC2)CC1 [Olaparib] (first compound max 0.3 µM, 7x7, partner max 10 µM), the Bliss excess worked out at 0.005 in the assay with COLO-679 (Melanoma) and 0.0458 in assay [1]. Besides, the “combination Emax” value worked out at 1 in assay [2]; 0.987 in [3]; 1 in assay [4]; 1 in assay [5]; 0.76 in the assay on SK-N-AS (Neuroblastoma); 0.965 in [6]. The “combination Emax” value in assay [7] is 0.96; in [8] it was 1; in assay [10], 0.54; in assay [11], 0.914; in assay [13] it was 0.796; in assay [14] it was 0.944. The “combination Emax” value in [16] was determined as 0.997; in [17] it was 0.813; in assay [18], 0.389.
With `CC1(C)CCC(CN2CCN(c3ccc(C(=O)NS(=O)(=O)c4ccc(NCC5CCOCC5)c([N+](=O)[O-])c4)c(Oc4cnc5[nH]ccc5c4)c3)CC2)=C(c2ccc(Cl)cc2)C1` [Venetoclax] + CS(=O)(=O)CCNCc1ccc(-c2ccc3ncnc(Nc4ccc(OCc5cccc(F)c5)c(Cl)c4)c3c2)o1 [Lapatinib] (first compound max 1 µM, 7x7, partner max 10 µM), the Bliss excess in the assay on COLO-679 (Melanoma) is -0.0634; in assay [1], -0.0249. Besides, the “combination Emax” value in [4] stood at 0.977; in assay [5], 0.0911; with SK-N-AS (Neuroblastoma) it was 0.118; in assay [7], 0.832; in [8] it was 1; in assay [11], 0.427. Besides, the “combination Emax” value in [16] was found to be 0.503; in assay [17], 0.127; in assay [18], 0.153.
